Target: T1, VEGFR2 (Homo sapiens, UniProt P35968)
T1 construct: gene KDR; recombinant VEGFR2 (amino acids 789 to end)
Assay: cell-free ADP-Glo kinase assay at […] ATP, with ATP competition at […] ATP
Type: biochemical

T1 sequence (P35968 789-1356): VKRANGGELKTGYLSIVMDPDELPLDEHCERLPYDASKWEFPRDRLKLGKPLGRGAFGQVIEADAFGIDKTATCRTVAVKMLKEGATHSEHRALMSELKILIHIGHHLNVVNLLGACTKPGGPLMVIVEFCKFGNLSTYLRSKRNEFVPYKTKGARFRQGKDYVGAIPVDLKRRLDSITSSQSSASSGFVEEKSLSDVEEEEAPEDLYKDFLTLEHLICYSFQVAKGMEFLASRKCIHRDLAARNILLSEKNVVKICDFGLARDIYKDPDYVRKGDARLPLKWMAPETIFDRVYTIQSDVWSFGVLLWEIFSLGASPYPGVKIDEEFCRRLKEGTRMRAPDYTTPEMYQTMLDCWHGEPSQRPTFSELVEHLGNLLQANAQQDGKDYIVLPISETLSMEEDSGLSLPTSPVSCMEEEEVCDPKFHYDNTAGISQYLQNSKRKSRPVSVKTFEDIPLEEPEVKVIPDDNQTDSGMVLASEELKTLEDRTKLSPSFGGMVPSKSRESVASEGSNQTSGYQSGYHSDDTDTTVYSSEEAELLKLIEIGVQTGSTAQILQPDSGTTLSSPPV

## Oc1c(I)cc(Cl)c2cccnc12 [clioquinol]
  IC50: 34.6 µM
